Assay results reported in ChEMBL document CHEMBL1138430, “Novel tetrahydroisoquinolines are histamine H3 antagonists and serotonin reuptake inhibitors” (Bioorg Med Chem Lett, 2007).
Calls of active or inactive are those of the source.

Key:
[1] = target: T1, Neuromedin-K receptor (Homo sapiens) (UniProt P29371); experiment: Binding affinity at NK3 receptor at 1 uM
T1 sequence (whole entry): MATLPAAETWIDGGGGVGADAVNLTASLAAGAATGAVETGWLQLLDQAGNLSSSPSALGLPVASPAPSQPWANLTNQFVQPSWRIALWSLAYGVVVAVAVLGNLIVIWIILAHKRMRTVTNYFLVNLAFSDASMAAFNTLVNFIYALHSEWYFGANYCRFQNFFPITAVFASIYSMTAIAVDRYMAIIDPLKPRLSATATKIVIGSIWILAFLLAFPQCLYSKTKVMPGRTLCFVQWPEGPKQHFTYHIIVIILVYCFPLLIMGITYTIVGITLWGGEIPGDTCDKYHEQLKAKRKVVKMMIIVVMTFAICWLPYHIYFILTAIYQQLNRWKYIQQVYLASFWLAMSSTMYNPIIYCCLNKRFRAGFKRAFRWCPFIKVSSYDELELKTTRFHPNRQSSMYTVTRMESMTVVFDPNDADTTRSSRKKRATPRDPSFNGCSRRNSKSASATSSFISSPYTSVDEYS

[2] = target: D(1A) dopamine receptor (Homo sapiens) (UniProt P21728); experiment: Binding affinity at dopamine D1 receptor at 1 uM
[3] = target: 5-hydroxytryptamine receptor 1B (Homo sapiens) (UniProt P28222); experiment: Binding affinity at 5HT1B receptor at 1 uM
[4] = target: T2, Type-1 angiotensin II receptor (Homo sapiens) (UniProt P30556); experiment: Binding affinity at AT1 receptor at 1 uM
T2 sequence (whole entry): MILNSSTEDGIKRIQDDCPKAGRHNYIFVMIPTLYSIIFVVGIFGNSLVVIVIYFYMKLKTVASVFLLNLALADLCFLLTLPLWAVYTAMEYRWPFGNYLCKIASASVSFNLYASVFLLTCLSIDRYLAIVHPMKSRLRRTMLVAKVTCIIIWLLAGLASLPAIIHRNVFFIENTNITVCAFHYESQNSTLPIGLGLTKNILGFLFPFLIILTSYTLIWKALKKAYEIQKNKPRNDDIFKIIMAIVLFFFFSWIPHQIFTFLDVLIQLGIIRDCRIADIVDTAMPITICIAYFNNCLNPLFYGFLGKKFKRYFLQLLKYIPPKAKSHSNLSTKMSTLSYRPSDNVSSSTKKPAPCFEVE

[5] = target: Beta-1 adrenergic receptor (Homo sapiens) (UniProt P08588); experiment: Binding affinity at adrenergic beta-1 receptor at 1 uM
[6] = target: T3, Muscarinic acetylcholine receptor M2 (Homo sapiens) (UniProt P08172); experiment: Binding affinity at muscarinic M2 receptor at 1 uM
T3 sequence (whole entry): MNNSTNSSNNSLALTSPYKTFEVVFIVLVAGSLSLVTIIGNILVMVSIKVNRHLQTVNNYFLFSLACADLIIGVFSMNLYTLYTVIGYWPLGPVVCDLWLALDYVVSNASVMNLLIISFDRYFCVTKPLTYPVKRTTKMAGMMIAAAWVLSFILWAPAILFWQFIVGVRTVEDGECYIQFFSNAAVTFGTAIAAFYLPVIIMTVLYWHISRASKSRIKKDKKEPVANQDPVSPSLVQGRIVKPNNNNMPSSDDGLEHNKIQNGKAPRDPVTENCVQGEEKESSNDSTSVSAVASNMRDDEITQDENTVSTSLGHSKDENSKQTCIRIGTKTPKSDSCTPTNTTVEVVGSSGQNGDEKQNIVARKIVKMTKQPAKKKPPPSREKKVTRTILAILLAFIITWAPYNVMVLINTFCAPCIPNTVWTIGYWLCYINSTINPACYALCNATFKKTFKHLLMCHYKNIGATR

[7] = target: Delta-type opioid receptor (Homo sapiens) (UniProt P41143); experiment: Binding affinity at DOP receptor at 1 uM
Homo sapiens [8] = species on record: Homo sapiens; experiment: Binding affinity for chloride channel at 1 uM
Homo sapiens [9] = species on record: Homo sapiens; experiment: Binding affinity for sodium channel at 1 uM
Homo sapiens [10] = species on record: Homo sapiens; experiment: Binding affinity at ML1 receptor at 1 uM
[11] = target: T4, Substance-K receptor (Homo sapiens) (UniProt P21452); experiment: Binding affinity at NK2 receptor at 1 uM
T4 sequence (whole entry): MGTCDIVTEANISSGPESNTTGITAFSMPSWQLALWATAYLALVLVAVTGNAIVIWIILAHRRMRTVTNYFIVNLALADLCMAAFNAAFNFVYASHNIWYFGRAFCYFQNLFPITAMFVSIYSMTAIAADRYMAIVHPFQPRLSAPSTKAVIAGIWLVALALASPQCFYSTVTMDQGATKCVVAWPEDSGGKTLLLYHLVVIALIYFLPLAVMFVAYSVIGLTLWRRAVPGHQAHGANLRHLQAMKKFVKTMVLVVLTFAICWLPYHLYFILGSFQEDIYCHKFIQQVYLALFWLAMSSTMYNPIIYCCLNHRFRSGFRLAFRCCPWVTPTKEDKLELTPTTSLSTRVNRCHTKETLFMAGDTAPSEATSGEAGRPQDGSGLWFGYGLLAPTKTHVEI

Homo sapiens [12] = species on record: Homo sapiens; experiment: Binding affinity at somatostatin receptor at 1 uM
Homo sapiens [13] = species on record: Homo sapiens; experiment: Binding affinity at adrenergic alpha-2 receptor at 1 uM
[14] = target: T5, Alpha-1A adrenergic receptor (Homo sapiens) (UniProt P35348); experiment: Binding affinity at adrenergic alpha-1 receptor at 1 uM
T5 sequence (whole entry): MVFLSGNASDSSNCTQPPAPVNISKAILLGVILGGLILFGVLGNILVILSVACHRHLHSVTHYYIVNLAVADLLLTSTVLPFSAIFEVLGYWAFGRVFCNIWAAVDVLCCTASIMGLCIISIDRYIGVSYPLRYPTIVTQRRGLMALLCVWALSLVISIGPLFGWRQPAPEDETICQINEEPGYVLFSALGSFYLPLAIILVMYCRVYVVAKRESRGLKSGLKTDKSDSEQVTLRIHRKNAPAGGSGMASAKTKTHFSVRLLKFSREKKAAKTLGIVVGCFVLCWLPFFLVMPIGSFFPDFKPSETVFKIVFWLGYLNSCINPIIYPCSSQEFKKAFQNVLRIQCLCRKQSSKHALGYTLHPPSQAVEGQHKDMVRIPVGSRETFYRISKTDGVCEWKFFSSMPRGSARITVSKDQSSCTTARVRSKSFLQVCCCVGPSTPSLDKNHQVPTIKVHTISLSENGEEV

[15] = target: 5-hydroxytryptamine receptor 5A (Homo sapiens) (UniProt P47898); experiment: Binding affinity at 5HT5A receptor at 1 uM

Measured: Activity

Sequence of Beta-1 adrenergic receptor (Homo sapiens) (P08588 whole entry, looked up): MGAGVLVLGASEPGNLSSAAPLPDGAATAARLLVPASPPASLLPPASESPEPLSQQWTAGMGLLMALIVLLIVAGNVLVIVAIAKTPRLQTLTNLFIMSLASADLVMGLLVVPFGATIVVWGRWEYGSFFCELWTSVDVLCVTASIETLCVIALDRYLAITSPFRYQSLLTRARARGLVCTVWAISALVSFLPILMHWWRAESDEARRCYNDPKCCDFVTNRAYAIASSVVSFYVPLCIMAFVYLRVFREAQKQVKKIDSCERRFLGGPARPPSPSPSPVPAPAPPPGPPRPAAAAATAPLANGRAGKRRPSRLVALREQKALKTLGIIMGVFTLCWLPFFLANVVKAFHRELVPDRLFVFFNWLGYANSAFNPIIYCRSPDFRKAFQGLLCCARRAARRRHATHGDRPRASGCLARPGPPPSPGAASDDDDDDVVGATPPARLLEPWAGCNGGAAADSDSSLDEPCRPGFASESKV
Sequence of D(1A) dopamine receptor (Homo sapiens) (P21728 whole entry): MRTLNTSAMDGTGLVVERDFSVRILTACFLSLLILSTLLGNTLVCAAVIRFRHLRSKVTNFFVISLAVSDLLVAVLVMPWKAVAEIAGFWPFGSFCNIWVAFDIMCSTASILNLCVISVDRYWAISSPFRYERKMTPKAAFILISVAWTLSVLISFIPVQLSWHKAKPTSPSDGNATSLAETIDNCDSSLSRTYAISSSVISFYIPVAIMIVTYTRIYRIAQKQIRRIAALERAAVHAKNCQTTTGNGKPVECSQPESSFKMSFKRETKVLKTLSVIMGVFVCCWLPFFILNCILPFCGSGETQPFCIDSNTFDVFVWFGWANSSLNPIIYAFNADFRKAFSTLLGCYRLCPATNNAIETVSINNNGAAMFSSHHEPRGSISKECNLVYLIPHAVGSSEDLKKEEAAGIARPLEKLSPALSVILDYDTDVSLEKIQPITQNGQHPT
Sequence of 5-hydroxytryptamine receptor 5A (Homo sapiens) (P47898 whole entry): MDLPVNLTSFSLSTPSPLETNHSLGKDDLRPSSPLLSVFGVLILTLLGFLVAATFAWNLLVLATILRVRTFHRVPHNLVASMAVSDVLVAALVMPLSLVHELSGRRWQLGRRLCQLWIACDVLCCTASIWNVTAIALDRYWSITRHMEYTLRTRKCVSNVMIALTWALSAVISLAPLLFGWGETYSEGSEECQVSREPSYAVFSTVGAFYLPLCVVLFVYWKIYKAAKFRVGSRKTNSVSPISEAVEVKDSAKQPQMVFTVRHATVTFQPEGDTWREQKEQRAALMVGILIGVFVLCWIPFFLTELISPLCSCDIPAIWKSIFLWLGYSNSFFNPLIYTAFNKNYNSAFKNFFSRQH
Sequence of 5-hydroxytryptamine receptor 1B (Homo sapiens) (P28222 whole entry): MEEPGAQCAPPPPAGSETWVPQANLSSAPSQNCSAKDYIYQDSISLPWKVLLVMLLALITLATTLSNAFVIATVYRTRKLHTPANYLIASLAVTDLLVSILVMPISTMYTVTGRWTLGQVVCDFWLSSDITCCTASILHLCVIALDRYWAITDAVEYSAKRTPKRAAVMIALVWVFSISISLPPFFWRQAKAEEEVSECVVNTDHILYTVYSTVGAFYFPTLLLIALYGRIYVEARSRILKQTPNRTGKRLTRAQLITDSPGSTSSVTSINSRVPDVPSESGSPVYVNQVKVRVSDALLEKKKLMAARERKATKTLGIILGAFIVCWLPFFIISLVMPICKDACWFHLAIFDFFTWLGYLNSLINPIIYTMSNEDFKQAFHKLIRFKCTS
Sequence of Delta-type opioid receptor (Homo sapiens) (P41143 whole entry): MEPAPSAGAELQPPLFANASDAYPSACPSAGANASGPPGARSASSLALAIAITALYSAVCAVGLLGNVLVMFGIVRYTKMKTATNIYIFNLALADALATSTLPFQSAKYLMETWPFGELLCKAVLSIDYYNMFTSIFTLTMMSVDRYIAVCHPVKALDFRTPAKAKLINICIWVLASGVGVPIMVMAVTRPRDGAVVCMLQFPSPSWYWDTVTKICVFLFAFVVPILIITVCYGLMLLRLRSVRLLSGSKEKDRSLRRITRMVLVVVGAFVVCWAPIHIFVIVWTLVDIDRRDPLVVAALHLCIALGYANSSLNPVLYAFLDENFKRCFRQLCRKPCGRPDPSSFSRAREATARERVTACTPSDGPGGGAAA

COc1ccc([C@@H]2CN(C)Cc3cc(OCCCN4CCOC[C@@H]4C)ccc32)cc1
inactive: all assays above

CSc1ccc(C2CN(C)Cc3cc(OCCCN4CCOCC4)ccc32)cc1 (racemic)
inactive: all assays above

CSc1ccc(C2CN(C)Cc3cc(OCCCN4CCC(F)CC4)ccc32)cc1 (racemic)
inactive: all assays above
